GI50 and TGI data for three compounds are collected here from PubChem BioAssay (NCI).

Some test systems named below: UACC-62 melanoma; SK-MEL-2 melanoma; SK-MEL-5 melanoma; HCC-2998 colon; U251 CNS; 786-0 renal; A549 NSCLC; SF-268 CNS; T-47D breast; K-562 leukemia.
Test in all cases: NCI-60 cell line screen, 48 h

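In this assay, cells in 96-well plates receive the compound at five concentrations for 48 hours. Endpoints are linearly interpolated between the surrounding concentrations. Abbreviation: GI50, concentration required for 50% inhibition of growth. TGI is the concentration that stops growth completely.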

For the compound `CCOc1cc(-c2nncn2C)ccc1Nc1ncc2cc(C)nc(NCC(C)(C)C)c2n1`, the GI50 is above 100 µM with UACC-62 melanoma; above 100 µM with SK-MEL-2 melanoma; above 24 µM in the assay with SK-MEL-5 melanoma; above 100 µM with HCC-2998 colon; above 100 µM in the assay with U251 CNS; above 100 µM in the assay with 786-0 renal. Also, the GI50 was 2.34 µM in the assay on A549 NSCLC, above 100 µM in the assay on SF-268 CNS and 2.83 µM in the assay on T-47D breast. The TGI with UACC-62 melanoma, in the assay on SK-MEL-2 melanoma, in the assay on SK-MEL-5 melanoma, in the assay on HCC-2998 colon, in the assay with U251 CNS and in the assay on 786-0 renal was above 100 µM throughout. The TGI in the assay on A549 NSCLC, in the assay with SF-268 CNS, in the assay with T-47D breast and in the assay on K-562 leukemia was above 100 µM each time.
With `CC[C@@H](C)/C=C(C)/C=C/C(=O)c1c(O)c(-c2ccc(OC(=O)[C@@]34CC[C@@](C)(C(=O)O3)C4(C)C)cc2)cn(O)c1=O`, the GI50 was 1.16 µM in the assay with UACC-62 melanoma; 15.6 µM in the assay with SK-MEL-2 melanoma; 1.4 µM with SK-MEL-5 melanoma; 3.65 µM with HCC-2998 colon; 1.64 µM in the assay on U251 CNS; 1.55 µM in the assay on 786-0 renal. Also, the GI50 in the assay on A549 NSCLC was 4.27 µM; in the assay on SF-268 CNS, 0.888 µM; in the assay with T-47D breast, 1.94 µM; in the assay on K-562 leukemia, 1.57 µM. Further, the TGI is 2.7 µM in the assay on UACC-62 melanoma; above 50 µM in the assay with SK-MEL-2 melanoma; 4.63 µM in the assay on SK-MEL-5 melanoma; above 50 µM in the assay with HCC-2998 colon; above 50 µM with U251 CNS; 4.98 µM with 786-0 renal. Besides, the TGI with A549 NSCLC is above 50 µM; in the assay on SF-268 CNS, 6.6 µM; with T-47D breast it was above 50 µM; with K-562 leukemia, above 50 µM.
As for `C[C@@H](Nc1cc(F)cc(F)c1)c1cc(C(=O)N(C)C)cc2c(=O)cc(N3CCOCC3)oc12`, the GI50 with UACC-62 melanoma is 1.13 µM; in the assay with SK-MEL-2 melanoma, 25.8 µM; with SK-MEL-5 melanoma, 22.1 µM; in the assay on HCC-2998 colon it was 10.4 µM; in the assay with U251 CNS it was 8.58 µM; in the assay with 786-0 renal, 0.192 µM. Further, the GI50 with A549 NSCLC was 7.43 µM; in the assay with SF-268 CNS it was 22.4 µM; in the assay with T-47D breast, 0.315 µM; in the assay on K-562 leukemia, 67.2 µM. For the same compound, the TGI was 20.9 µM in the assay on UACC-62 melanoma; above 100 µM in the assay on SK-MEL-2 melanoma; above 76.8 µM in the assay with SK-MEL-5 melanoma; above 100 µM with HCC-2998 colon; above 100 µM in the assay on U251 CNS; above 100 µM with 786-0 renal. For the same compound, the TGI with A549 NSCLC was above 100 µM; with SF-268 CNS, above 100 µM; in the assay on T-47D breast, 6.94 µM; with K-562 leukemia, above 100 µM.
